Measured values published in patent US11807640B1 (priority 2023, dated 2023).
In brackets after ≈: the same amount, converted by molar mass.

Legend:
[1] = tested on: MDR-MTB (Multidrug-resistant Mycobacterium tuberculosis); assay: microbe, parasite or virus in culture; type: cell-based; conditions: 192 h, read-out: MIC (μg/mL) MDR-MTB
[2] = tested on: XDR-MTB (Extensively drug-resistant Mycobacterium tuberculosis); assay: microbe, parasite or virus in culture; type: cell-based; conditions: 192 h, read-out: MIC (μg/mL) XDR-MTB

Row | Compound | MIC [1] [µg/mL] | MIC [2] [µg/mL]
1 | CCOC(=O)c1cc(C(=O)c2ccc(F)cc2)n2ccc(C(=O)OC(C)C)cc12 [KNV-4, 1-Ethyl 7-isopropyl 3-(4-fluorobenzoyl)indolizine-1,7-dicarboxylate] | 4 (≈ 10.1 µM) | 32 (≈ 80.5 µM)
2 | COC(=O)c1c(C(=O)OC)c2cc(C(=O)OC(C)C)ccn2c1C(=O)c1ccc(Br)cc1 [KNV-7, 7-Isopropyl 1,2-dimethyl 3-(4-bromobenzoyl)indolizine-1,2,7-tricarboxylate] | 8 (≈ 15.9 µM) | 8 (≈ 15.9 µM)
